In paper PMC11346435, “Regulation of Rubisco activity by interaction with chloroplast metabolites” (Biochemical Journal, 2024):
Like-named read-outs stand apart in the source and are kept apart here.

Legend:
[1] = target: T1, Rubisco (ribulose-1,5-bisphosphate carboxylase/oxygenase), carbamylated rice enzyme (Oryza sativa, UniProt P0C512); assay: […]CO2 incorporation assay with purified Rubisco, dose-response and Vmax/Km kinetics (competitive inhibition); assay type: biochemical; details: read-out: % inhibition at 12 mM
T1 construct: gene rbcL; Rubisco purified from rice leaves (cv. Nipponbare), L8S8 complex, carbamylated; with Rubisco small subunit (L8S8 holoenzyme)
T1 sequence (Q0INY7 47-175, other chains not shown): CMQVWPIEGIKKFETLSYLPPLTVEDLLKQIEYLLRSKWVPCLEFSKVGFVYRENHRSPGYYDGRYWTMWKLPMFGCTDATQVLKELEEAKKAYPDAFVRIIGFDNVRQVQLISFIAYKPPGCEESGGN

[2] = target: T1, Rubisco (ribulose-1,5-bisphosphate carboxylase/oxygenase), carbamylated rice enzyme; assay: biochemical; design: 14CO2 incorporation by purified activated rice Rubisco; apparent Ki from Michaelis-Menten kinetics; details: noncompetitive-like, apparent Ki
Experimental: Water was used as control and for each metabolite an intermediate and the highest concentration were used, with the exceptions of CABP for which the maximum concentration was 0.2 µM (as at the maximum concentration 0.3 µM the activity was very low) and for 3-PGA we used 8 and 12 mM (as these were the concentrations that affected Rubisco activity under saturating substrate concentrations). Basic assay buffer (100 mM Bicine-NaOH, pH 8.2, 20 mM MgCl2 and 2 mM KH2PO4) was sparged with compressed air which passed through soda lime and 1 M NaOH to remove CO2. […] The incubation with metabolite and activity were performed as described above. Vmax and Km were calculated using the Michaelis-Menten equation [58]. […] The incubation and activity were performed as described above and the activity was expressed as % of control samples (where control is 100%). Given the constraints associated with two substrate Rubisco activity and its interaction with tight binding inhibitions, we used a simplistic approximation to estimate apparent inhibitor constants (Kiapp) based on the Michaelis-Menten equations [59] (eqn 1) and on the ‘quotient velocity plot’ [60] (eqn 2). Where [I] is the inhibitor concentration and α was estimated according to the inhibition type: […]

[3] = target: T1, Rubisco (ribulose-1,5-bisphosphate carboxylase/oxygenase), carbamylated rice enzyme; assay: […]CO2 incorporation assay with purified Rubisco, dose-response and Vmax/Km kinetics; assay type: biochemical
[4] = target: T1, Rubisco (ribulose-1,5-bisphosphate carboxylase/oxygenase), carbamylated rice enzyme; assay: as above; assay type: biochemical; details: read-out: % inhibition at 0.3 μM
[5] = tested on: O=C(COP(=O)(O)O)[C@H](O)[C@H](O)COP(=O)(O)O; assay: purified protein; details: Mg2+; carbamylated Lys201 (activator CO2) catalytic site
[6] = Eq. 1 (Michaelis-Menten), read-out: Ki^app (Eq. 1)
[7] = Eq. 2 (quotient velocity plot), read-out: Ki^app (Eq. 2)

Compound | Ki [2, 6] [nM] | Ki [2, 7] [nM] | further results
O=C(O)[C@H](O)COP(=O)(O)O [3-PGA] | – | – | inhibition at 12000 µM [1]: ~30%
O=C(O)[C@@](O)(COP(=O)(O)O)[C@H](O)[C@H](O)CO [CA1P] | 440 ± 80 | 440 ± 10 | 14CO2 incorporation assay with purified Rubisco, dose-response and Vmax/Km kinet [3]: activity decreases by half at 0.3
O=C(O)[C@@](O)(COP(=O)(O)O)[C@H](O)[C@H](O)COP(=O)(O)O [CABP] | 120 ± 20 | 100 ± 20 | inhibition at 0.3 µM [4]: ~86%
Rubisco (ribulose-1,5-bisphosphate carboxylase/oxygenase), carbamylated rice enzyme (Oryza sativa Japonica Group) | – | – | Km [5]: 78.08 ± 3.29 µM
